Patent US20260028354A1, “TETRAHYDRONAPHTHALENE DERIVATIVES AS ESTROGEN RECEPTOR DEGRADERS” (REGENT OF THE UNIVERSITY OF MICHIGAN, priority 2022, published 2026)

Columns and labels:
[1] = molecular target: ER (Homo sapiens (Human), UniProt P03372); assay: In-cell western blot analysis of ER for "B" compounds; assay type: cell-based; conditions: 16 hours, read-out: ICW DC50
Procedure, shortened: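 In-cell western: fixed cells stained with primary antibodies (2 h, RT), then anti-rabbit-680 and anti-mouse-800 secondaries (1:1000, 1 h, RT), imaged on a LI-COR plate reader. Relative ER level in treated wells expressed against untreated and DMSO-treated wells set as 100%.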

[2] = Cell growth assay (WST-8) for "B" compounds; assay type: cell-based; conditions: T47D, T47D cell line; read-out: Cell growth Inhibition in T47D cell line IC50
Procedure, shortened: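 Cells seeded at 1500/well overnight, then exposed to compounds for 4 days. 10% WST-8 added for 2.5 h at 37 °C and absorbance read at 450 nm. Growth given as absorbance relative to vehicle control, from three repeats.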

Sequence of ER (P03372 whole entry): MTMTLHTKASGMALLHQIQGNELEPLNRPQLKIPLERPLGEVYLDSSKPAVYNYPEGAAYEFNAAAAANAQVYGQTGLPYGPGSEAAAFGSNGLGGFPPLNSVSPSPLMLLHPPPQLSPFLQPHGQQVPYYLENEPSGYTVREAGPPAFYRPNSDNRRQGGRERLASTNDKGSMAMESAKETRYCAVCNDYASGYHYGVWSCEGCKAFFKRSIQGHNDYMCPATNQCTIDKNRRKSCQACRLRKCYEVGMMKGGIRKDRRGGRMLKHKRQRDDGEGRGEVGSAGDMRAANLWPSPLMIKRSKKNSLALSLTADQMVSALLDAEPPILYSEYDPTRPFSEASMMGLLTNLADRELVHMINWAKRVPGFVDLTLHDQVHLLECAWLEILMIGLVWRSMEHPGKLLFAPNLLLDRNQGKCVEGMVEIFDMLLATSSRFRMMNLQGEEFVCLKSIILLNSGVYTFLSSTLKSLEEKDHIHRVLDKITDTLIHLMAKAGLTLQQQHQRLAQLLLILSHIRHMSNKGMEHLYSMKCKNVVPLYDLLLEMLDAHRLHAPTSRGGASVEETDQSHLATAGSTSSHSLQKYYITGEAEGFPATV

SMILES	DC50 [1] [nM]	IC50 [2] [nM]
O=C1CC[C@H](NC(=O)c2ccc3c(n2)OC[C@H]2CN(CC4CCC5(C4)CN(c4ccc([C@@H]6c7ccc(O)cc7CC[C@@H]6c6ccccc6)cc4)C5)CCN32)C(=O)N1 (stereo partly drawn) [Compound B360, (4aR)-N-((S)-2,6-dioxopiperidin-3-yl)-3-((2-(4-((1R,2S)-6-hydroxy-2-phenyl-1,2,3,4-tetrahydronaphthalen-1-yl)phenyl)-2-azaspiro[3.4]octan-6-yl)methyl)-1,2,3,4,4a,5-hexahydropyrazino[1,2-d]pyrido[2,3-b][1,4]oxazine-8-carboxamide]	> 100	> 10
O=C1CCC(N2C(=O)c3cc4c(cc3C2=O)N2C[C@@H](NCC3CC5(CCN(c6ccc([C@@H]7c8ccc(O)cc8CC[C@@H]7c7ccccc7)cc6)CC5)C3)C[C@H]2CO4)C(=O)N1 (stereo partly drawn) [Compound B329, (2S,3aS)-8-(2,6-dioxopiperidin-3-yl)-2-(((7-(4-((1R,2S)-6-hydroxy-2-phenyl-1,2,3,4-tetrahydronaphthalen-1-yl)phenyl)-7-azaspiro[3.5]nonan-2-yl)methyl)amino)-2,3,3a,4-tetrahydro-1H,7H-pyrrolo[1′,2′:4,5][1,4]oxazino[2,3-f]isoindole-7,9(8H)-dione]	> 100	> 10
CN(CC1CCN(c2ccc([C@@H]3c4ccc(O)cc4CC[C@@H]3c3ccccc3)cc2)CC1)[C@H]1C[C@H]2COc3cc4c(cc3N2C1)CN(C1CCC(=O)NC1=O)C4=O (stereo partly drawn) [Compound B310, 3-((2S,3aS)-2-(((1-(4-((1R,2S)-6-hydroxy-2-phenyl-1,2,3,4-tetrahydronaphthalen-1-yl)phenyl)piperidin-4-yl)methyl)(methyl)amino)-7-oxo-2,3,3a,4,7,9-hexahydro-1H,8H-pyrrolo[1′,2′:4,5][1,4]oxazino[2,3-f]isoindol-8-yl)piperidine-2,6-dione]	> 100	< 1
O=C1CCC(N2Cc3c(ccc4c3OC[C@H]3CN(CC(=O)N5CC(Nc6ccc([C@@H]7c8ccc(O)cc8CC[C@@H]7c7ccccc7)cc6)C5)CCN43)C2=O)C(=O)N1 (stereo partly drawn) [Compound B220, 3-((R)-7-(2-(3-((4-((1R,2S)-6-hydroxy-2-phenyl-1,2,3,4-tetrahydronaphthalen-1-yl)phenyl)amino)azetidin-1-yl)-2-oxoethyl)-1-oxo-1,3,5,5a,6,7,8,9-octahydro-2H-pyrazino[1′,2′:4,5][1,4]oxazino[2,3-e]isoindol-2-yl)piperidine-2,6-dione]	> 100	< 1
O=C1CC[C@H](NC(=O)c2ccc3c(n2)OC[C@H]2CN(CC4CCN(c5ccc([C@@H]6c7ccc(O)cc7CC[C@@H]6c6ccccc6)cc5)CC4)CCN32)C(=O)N1 [Compound B224, (R)-N-((S)-2,6-dioxopiperidin-3-yl)-3-((1-(4-((1R,2S)-6-hydroxy-2-phenyl-1,2,3,4-tetrahydronaphthalen-1-yl)phenyl)piperidin-4-yl)methyl)-1,2,3,4,4a,5-hexahydropyrazino[1,2-d]pyrido[2,3-b][1,4]oxazine-8-carboxamide]	> 100	1 to 10
O=C1CCC(N2Cc3c(ccc4c3N3CCN(CC5CCN(c6ccc([C@@H]7c8ccc(O)cc8CC[C@@H]7c7ccccc7)cc6)CC5)C[C@H]3CO4)C2=O)C(=O)N1 (stereo partly drawn) [Compound B243, 3-((S)-9-((1-(4-((1R,2S)-6-hydroxy-2-phenyl-1,2,3,4-tetrahydronaphthalen-1-yl)phenyl)piperidin-4-yl)methyl)-3-oxo-1,3,7,7a,8,9,10,11-octahydro-2H-pyrazino[1′,2′:4,5][1,4]oxazino[3,2-e]isoindol-2-yl)piperidine-2,6-dione]	10 to 100	1 to 10
O=C1CCC(N2Cc3cc4c(cc3C2=O)OC[C@@H]2CN(C(=O)[C@H]3CC[C@@H](CN5CC(Nc6ccc([C@@H]7c8ccc(O)cc8CC[C@@H]7c7ccccc7)cc6)C5)CC3)CCN42)C(=O)N1 (stereo partly drawn) [Compound B140, 3-((S)-3-((1R,4S)-4-((3-((4-((1R,2S)-6-hydroxy-2-phenyl-1,2,3,4-tetrahydronaphthalen-1-yl)phenyl)amino)azetidin-1-yl)methyl)cyclohexane-1-carbonyl)-8-oxo-1,2,3,4,4a,5,8,10-octahydro-9H-pyrazino[1′,2′:4,5][1,4]oxazino[2,3-f]isoindol-9-yl)piperidine-2,6-dione]	< 10	< 1
O=C1CC[C@H](NC(=O)c2ccc3c(n2)OC[C@H]2CN(CC4COC5(CCN(c6ccc([C@@H]7c8ccc(O)cc8CC[C@@H]7c7ccccc7)cc6)CC5)C4)CCN32)C(=O)N1 (stereo partly drawn) [Compound B236, (4aR)-N-((S)-2,6-dioxopiperidin-3-yl)-3-((8-(4-((1R,2S)-6-hydroxy-2-phenyl-1,2,3,4-tetrahydronaphthalen-1-yl)phenyl)-1-oxa-8-azaspiro[4.5]decan-3-yl)methyl)-1,2,3,4,4a,5-hexahydropyrazino[1,2-d]pyrido[2,3-b][1,4]oxazine-8-carboxamide]	10 to 100	< 1
O=C1CCC(N2Cc3cc4c(cc3C2=O)OC[C@@H]2CN(C(=O)CN3CCC5(CC3)CCN(c3ccc([C@@H]6c7ccc(O)cc7CC[C@@H]6c6ccccc6)cc3)CC5)CCN42)C(=O)N1 (stereo partly drawn) [Compound B146, 3-((S)-3-(2-(9-(4-((1R,2S)-6-hydroxy-2-phenyl-1,2,3,4-tetrahydronaphthalen-1-yl)phenyl)-3,9-diazaspiro[5.5]undecan-3-yl)acetyl)-8-oxo-1,2,3,4,4a,5,8,10-octahydro-9H-pyrazino[1′,2′:4,5][1,4]oxazino[2,3-f]isoindol-9-yl)piperidine-2,6-dione]	< 10	< 1

Second part, led by results:

DC50 [1] [nM]	SMILES	IC50 [2] [nM]
< 10	O=C1CCC(N2Cc3cc4c(cc3C2=O)OC[C@@H]2CN(CC(=O)N3CC5(C3)CN(c3ccc([C@@H]6c7ccc(O)cc7CC[C@@H]6c6ccccc6)cc3)C5)CCN42)C(=O)N1 (stereo partly drawn) [Compound B208, 3-((S)-3-(2-(6-(4-((1R,2S)-6-hydroxy-2-phenyl-1,2,3,4-tetrahydronaphthalen-1-yl)phenyl)-2,6-diazaspiro[3.3]heptan-2-yl)-2-oxoethyl)-8-oxo-1,2,3,4,4a,5,8,10-octahydro-9H-pyrazino[1′,2′:4,5][1,4]oxazino[2,3-f]isoindol-9-yl)piperidine-2,6-dione]	< 1
< 10	O=C1CCC(N2Cc3cc4c(cc3C2=O)OC[C@@H]2CN(CC(=O)N3CC(Oc5ccc([C@@H]6c7ccc(O)cc7CC[C@@H]6c6ccccc6)cc5)C3)CCN42)C(=O)N1 (stereo partly drawn) [Compound B150, 3-((S)-3-(2-(3-(4-((1R,2S)-6-hydroxy-2-phenyl-1,2,3,4-tetrahydronaphthalen-1-yl)phenoxy)azetidin-1-yl)-2-oxoethyl)-8-oxo-1,2,3,4,4a,5,8,10-octahydro-9H-pyrazino[1′,2′:4,5][1,4]oxazino[2,3-f]isoindol-9-yl)piperidine-2,6-dione]	< 1
< 10	O=C1CCC(N2Cc3c(ccc4c3OCC43CCN(C(=O)CN4CCC5(CC4)CN(c4ccc([C@@H]6c7ccc(O)cc7CC[C@@H]6c6ccccc6)cc4)C5)CC3)C2=O)C(=O)N1 (stereo partly drawn) [Compound B214, 3-(1′-(2-(2-(4-((1R,2S)-6-hydroxy-2-phenyl-1,2,3,4-tetrahydronaphthalen-1-yl)phenyl)-2,7-diazaspiro[3.5]nonan-7-yl)acctyl)-6-oxo-6,8-dihydro-2H,7H-spiro[furo[2,3-e]isoindole-3,4′-piperidin]-7-yl)piperidine-2,6-dione]	< 1
< 10	O=C1CCC(N2Cc3c(ccc4c3OCC43CCN(C(=O)CN4CC5(CC(Nc6ccc([C@@H]7c8ccc(O)cc8CC[C@@H]7c7ccccc7)cc6)C5)C4)CC3)C2=O)C(=O)N1 (stereo partly drawn) [Compound B168, 3-(1′-(2-(6-((4-((1R,2S)-6-hydroxy-2-phenyl-1,2,3,4-tetrahydronaphthalen-1-yl)phenyl)amino)-2-azaspiro[3.3]heptan-2-yl)acetyl)-6-oxo-6,8-dihydro-2H,7H-spiro[furo[2,3-e]isoindole-3,4′-piperidin]-7-yl)piperidine-2,6-dione]	< 1
< 10	O=C1CCC(N2Cc3cc4c(cc3C2=O)OC[C@@H]2CN(C(=O)CN3CC5(CC(Nc6ccc([C@@H]7c8ccc(O)cc8CC[C@@H]7c7ccccc7)cc6)C5)C3)CCN42)C(=O)N1 (stereo partly drawn) [Compound B155, 3-((S)-3-(2-(6-((4-((1R,2S)-6-hydroxy-2-phenyl-1,2,3,4-tetrahydronaphthalen-1-yl)phenyl)amino)-2-azaspiro[3.3]heptan-2-yl)acetyl)-8-oxo-1,2,3,4,4a,5,8,10-octahydro-9H-pyrazino[1′,2′:4,5][1,4]oxazino[2,3-f]isoindol-9-yl)piperidine-2,6-dione]	< 1
< 10	O=C1CC[C@H](N2Cc3c(ccc4c3OC[C@H]3CN(CC(=O)OC5CCN(c6ccc([C@@H]7c8ccc(O)cc8CC[C@@H]7c7ccccc7)cc6)CC5)CCN43)C2=O)C(=O)N1 [Compound B341]	< 1
< 10	O=C1CCC(N2Cc3cc4c(cc3C2=O)OC[C@@H]2CN(C(=O)CN3CC(Nc5ccc([C@@H]6c7ccc(O)cc7CC[C@@H]6c6ccccc6)cc5)C3)CCN42)C(=O)N1 (stereo partly drawn) [Compound B204, 3-((S)-3-(2-(3-((4-((1R,2S)-6-hydroxy-2-phenyl-1,2,3,4-tetrahydronaphthalen-1-yl)phenyl)amino)azetidin-1-yl)acetyl)-8-oxo-1,2,3,4,4a,5,8,10-octahydro-9H-pyrazino[1′,2′:4,5][1,4]oxazino[2,3-f]isoindol-9-yl)piperidine-2,6-dione]	< 1
